Several values for one entry are separate records, joined by “and”; a condition that tells them apart may be missing. Equal values may be shown once. Read-outs that look alike come from different tables or passages of the source.
Legend:
SMARCA4 [1] = target: T1, SMARCA4 (Homo sapiens, UniProt P51532); assay: Ex vivo human whole blood assay, SMARCA4; type: cell-based; set-up: endogenous in cells; settings: for HillSlope (best-fit value): four-parameter fit; for Bottom (best-fit value) / Span (best-fit value) / Top (best-fit value): four-parameter fit of % protein remaining
Method: The assay was performed on human whole blood from three healthy donors, purchased from the Austrian Red Cross who always obtain samples under informed consent. […] Subsequently, peripheral blood mononucleated cells (PBMCs) were isolated from individual aliquots using SepMate Tubes (StemCell) and Lymphoprep (StemCell) medium according to the manufacturer’s instructions and protein lysates were prepared using MSD Lysis buffer (Mesocale Discovery) supplemented with 1:100 Halt Phosphatase-Protease Inhibitor Cocktail (Thermo Fisher), 0.5 µl/ml benzonase (Novagen) and 10 mM DTT. SMARCA2 and SMARCA4 protein levels were determined using capillary electrophoresis (Bio-Techne) according to manufacturer’s instructions. Incubation with primary antibodies for SMARCA2 (Cell Signalling #11966 clone D9E8B RRID:AB_2797783 1:25), SMARCA4 (Abcam #ab110641 clone EPNCIR111A RRID:AB_10861578 1:25) and GAPDH (Abcam, #ab9485 RRID:AB_307275 1:1000) were performed for 30 min.

SMARCA4 [2] = target: T1, SMARCA4; assay: SMARCA4 capillary electrophoresis protein assay in other cell lines (HCT116, LU99, HCC-364, HCT-15, HCC4006, SK-N-AS); type: cell-based; set-up: endogenous in cells; host or cells: RKO, HCT116, LU99, HCC-364, HCT-15, HCC4006, SK-N-AS; settings: for Bottom (best-fit value, % protein remaining) / DC50 / HillSlope: four-parameter fit; for LogEC50: log10 of concentration in mol/l; for DC50: protein degradation, read-out: EC50 (the source's name)
Method: 130,000–200,000 cells were seeded in 24-well plates and incubated until settled down or overnight. Compounds were dissolved in DMSO and added to cells in indicated concentrations using a digital dispenser following an optional media change. […] For SMARCA2/4 half-life determination, 150,000 or 200,000 cells were seeded in 24-well plates. […] For SMARCA2/4 re-synthesis measurements, 200,000 cells were seeded in 24-well plates. […] Medium was removed, cells were washed with PBS and lysed with 80 µl Lysis Buffer (MSD Tris Lysis Buffer (#R60TX-2) + Halt Inhibitor Cocktail (100x) + Benzonase 0.5 µL/ml). Samples were frozen at −80 °C and thawed at room temperature before use. Samples were transferred to a V-bottom plate and insoluble debris was pelleted by centrifugation for 5 min at maximum speed. The supernatant was transferred to a fresh plate. Master Mix and Ladder were prepared according to manufacturer’s instructions for 12–230 kDa Wes Separation Module, 8 × 25 capillary cartridges, Protein Simple #SM-W004 with Anti-Rabbit Detection Module for Wes, Peggy Sue or Sally Sue, Protein Simple #DM-001. 4.8 µl lysate were mixed with 1.2 µl Master Mix to achieve a protein concentration of ~0.5 µg/µl. […] Wes plates were prepared and run according to manufacturer’s instructions. Proteins were quantified with accompanying Compass Software. SMARCA2/4 protein levels were normalised to GAPDH. […] Where applicable, curves were fitted using a 4-parametric logistic model.

T1 sequence (P51532 whole entry): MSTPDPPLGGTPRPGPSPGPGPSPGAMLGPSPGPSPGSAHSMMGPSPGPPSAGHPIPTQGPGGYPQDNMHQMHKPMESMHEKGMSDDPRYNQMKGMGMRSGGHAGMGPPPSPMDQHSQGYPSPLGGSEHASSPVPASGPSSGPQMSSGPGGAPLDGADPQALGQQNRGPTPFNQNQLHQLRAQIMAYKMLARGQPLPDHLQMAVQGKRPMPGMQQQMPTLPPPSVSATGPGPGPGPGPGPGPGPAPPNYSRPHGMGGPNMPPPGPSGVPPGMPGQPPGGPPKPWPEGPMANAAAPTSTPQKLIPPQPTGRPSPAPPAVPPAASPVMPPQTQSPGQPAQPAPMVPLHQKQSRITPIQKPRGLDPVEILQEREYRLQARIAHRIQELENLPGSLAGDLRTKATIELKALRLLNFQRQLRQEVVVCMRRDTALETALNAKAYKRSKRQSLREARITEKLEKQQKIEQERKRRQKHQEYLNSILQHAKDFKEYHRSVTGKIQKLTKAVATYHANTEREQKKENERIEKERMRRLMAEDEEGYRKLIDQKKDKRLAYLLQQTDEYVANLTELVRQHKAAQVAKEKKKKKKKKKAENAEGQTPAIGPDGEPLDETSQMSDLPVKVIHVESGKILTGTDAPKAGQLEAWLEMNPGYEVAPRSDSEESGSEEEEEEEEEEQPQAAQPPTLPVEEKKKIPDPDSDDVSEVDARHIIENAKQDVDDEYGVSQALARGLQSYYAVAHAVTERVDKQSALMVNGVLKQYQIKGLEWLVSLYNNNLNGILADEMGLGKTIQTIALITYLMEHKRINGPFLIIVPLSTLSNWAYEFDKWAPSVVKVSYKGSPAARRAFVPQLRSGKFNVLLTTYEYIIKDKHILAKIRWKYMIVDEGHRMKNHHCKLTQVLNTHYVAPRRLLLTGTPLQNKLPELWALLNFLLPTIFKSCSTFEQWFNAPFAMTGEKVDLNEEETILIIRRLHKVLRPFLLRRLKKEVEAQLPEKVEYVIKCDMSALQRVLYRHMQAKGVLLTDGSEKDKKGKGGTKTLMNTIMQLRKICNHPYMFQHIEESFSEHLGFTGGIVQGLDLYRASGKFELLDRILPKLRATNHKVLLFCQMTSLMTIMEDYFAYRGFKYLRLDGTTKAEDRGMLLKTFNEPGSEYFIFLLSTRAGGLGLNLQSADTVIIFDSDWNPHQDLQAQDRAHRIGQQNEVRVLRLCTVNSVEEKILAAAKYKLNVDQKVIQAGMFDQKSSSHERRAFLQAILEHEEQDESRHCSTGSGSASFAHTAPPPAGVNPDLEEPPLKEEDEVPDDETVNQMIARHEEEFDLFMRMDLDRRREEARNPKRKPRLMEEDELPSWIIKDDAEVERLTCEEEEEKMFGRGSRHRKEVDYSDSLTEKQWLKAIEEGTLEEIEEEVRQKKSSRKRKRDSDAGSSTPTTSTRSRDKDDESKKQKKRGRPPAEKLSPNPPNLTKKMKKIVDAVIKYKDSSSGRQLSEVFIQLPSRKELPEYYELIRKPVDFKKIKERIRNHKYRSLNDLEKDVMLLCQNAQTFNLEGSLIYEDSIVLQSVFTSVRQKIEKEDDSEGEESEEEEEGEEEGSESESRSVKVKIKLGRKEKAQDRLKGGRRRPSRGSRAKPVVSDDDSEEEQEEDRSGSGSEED

SMILES: Cc1ncsc1-c1ccc(C(CCC(C)CCN2CCC(c3ccc4c(c3)n(C3CCCC3)c3nc(=O)c5c(Br)cccc5n43)CC2)NC(=O)C2CC(O)CN2C(=O)C(NC(=O)C2(F)CC2)C(C)(C)C)cc1 (stereo not drawn) [ACBI2]
- % protein remaining, SMARCA4 (SMARCA4 [1]; Donor 1, log10[concentration (mol/l)] -6): 46.277% and 56.0869% and 48.4826%
- % protein remaining, SMARCA4 (SMARCA4 [1]; Donor 1, log10[concentration (mol/l)] -6.47712): 107.389% and 70.5686% and 73.1116%
- % protein remaining, SMARCA4 (SMARCA4 [1]; Donor 1, log10[concentration (mol/l)] -6.95424): 84.4427% and 113.429% and 101.258%
- % protein remaining, SMARCA4 (SMARCA4 [1]; Donor 1, log10[concentration (mol/l)] -7.43136): 119.708% and 145.145% and 104.637%
- % protein remaining, SMARCA4 (SMARCA4 [1]; Donor 1, log10[concentration (mol/l)] -7.90848): 127.921% and 114.745% and 82.4839%
- % protein remaining, SMARCA4 (SMARCA4 [1]; Donor 1, log10[concentration (mol/l)] -8.38561): 104.578% and 95.4334% and 80.9398%
- HillSlope (best-fit value) (SMARCA4 [1]; Donor 1 SMARCA4): -2.117
- Bottom (best-fit value) (SMARCA4 [1]; Donor 1 SMARCA4): 40.33%
- Span (best-fit value) (SMARCA4 [1]; Donor 1 SMARCA4): 66.56%
- Top (best-fit value) (SMARCA4 [1]; Donor 1 SMARCA4): 106.9%
- % protein remaining, SMARCA4 (SMARCA4 [1]; Donor 2, log10[concentration (mol/l)] -6): 50.102% and 76.224% and 84.3004%
- % protein remaining, SMARCA4 (SMARCA4 [1]; Donor 2, log10[concentration (mol/l)] -6.47712): 93.5183% and 92.0167% and 75.7642%
- % protein remaining, SMARCA4 (SMARCA4 [1]; Donor 2, log10[concentration (mol/l)] -6.95424): 80.3377% and 113.951% and 102.967%
- % protein remaining, SMARCA4 (SMARCA4 [1]; Donor 2, log10[concentration (mol/l)] -7.43136): 130.957% and 130.042% and 111.295%
- % protein remaining, SMARCA4 (SMARCA4 [1]; Donor 2, log10[concentration (mol/l)] -7.90848): 121.533% and 102.344% and 98.5667%
- % protein remaining, SMARCA4 (SMARCA4 [1]; Donor 2, log10[concentration (mol/l)] -8.38561): 105.689% and 139.901% and 105.419%
- % protein remaining, SMARCA4 (SMARCA4 [1]; Donor 2, log10[concentration (mol/l)] -8.86273): 54.3169% and 99.7184% and 98.048%
- HillSlope (best-fit value) (SMARCA4 [1]; Donor 2 SMARCA4): -2.11
- Bottom (best-fit value) (SMARCA4 [1]; Donor 2 SMARCA4): 67.18%
- Span (best-fit value) (SMARCA4 [1]; Donor 2 SMARCA4): 40.18%
- Top (best-fit value) (SMARCA4 [1]; Donor 2 SMARCA4): 107.4%
- % protein remaining, SMARCA4 (SMARCA4 [1]; Donor 3, log10[concentration (mol/l)] -6.47712): 88.0329% and 79.2762% and 67.3837%
- % protein remaining, SMARCA4 (SMARCA4 [1]; Donor 3, log10[concentration (mol/l)] -6.95424): 92.9994% and 98.4764% and 74.8427%
- % protein remaining, SMARCA4 (SMARCA4 [1]; Donor 3, log10[concentration (mol/l)] -7.43136): 95.6107% and 82.1879% and 123.028%
- % protein remaining, SMARCA4 (SMARCA4 [1]; Donor 3, log10[concentration (mol/l)] -7.90848): 125.23% and 122.739% and 76.3116%
- % protein remaining, SMARCA4 (SMARCA4 [1]; Donor 3, log10[concentration (mol/l)] -8.38561): 96.5427% and 109.291% and 74.8647%
- % protein remaining, SMARCA4 (SMARCA4 [1]; Donor 3, log10[concentration (mol/l)] -8.86273): 92.1949% and 111.194% and 102.774%
- HillSlope (best-fit value) (SMARCA4 [1]; Donor 3 SMARCA4): -1.413
- Bottom (best-fit value) (SMARCA4 [1]; Donor 3 SMARCA4): 61.66%
- Span (best-fit value) (SMARCA4 [1]; Donor 3 SMARCA4): 39.83%
- Top (best-fit value) (SMARCA4 [1]; Donor 3 SMARCA4): 101.5%
- SMARCA4 degradation in human whole blood (SMARCA4 [1]; up to a top concentration of 1 µM): ≤ 50%
- Bottom (best-fit value, % protein remaining) (SMARCA4 [2]; HCC4006_SM4): 9.858%
- % protein remaining (SMARCA4 [2]; HCC4006_SM4, log10[concentration (mol/l)] -6): 8.466% and 14.8549% and 6.254%
- % protein remaining (SMARCA4 [2]; HCC4006_SM4, log10[concentration (mol/l)] -8): 107.17% and 168.214% and 84.8869%
- % protein remaining (SMARCA4 [2]; HCC4006_SM4, log10[concentration (mol/l)] -10): 87.4945% and 108.459% and 92.3747%
- LogEC50 (SMARCA4 [2]; HCC4006_SM4): -7.029
- DC50 (SMARCA4 [2]; HCC4006_SM4): 93.5 nM
- Bottom (best-fit value, % protein remaining) (SMARCA4 [2]; HCC-364_SM4): 3.161%
- HillSlope (SMARCA4 [2]; HCC-364_SM4): -1.653
- % protein remaining (SMARCA4 [2]; HCC-364_SM4, log10[concentration (mol/l)] -6): 3.167% and 1.374% and 3.983%
- % protein remaining (SMARCA4 [2]; HCC-364_SM4, log10[concentration (mol/l)] -7): 9.937% and 9.321% and 6.672%
- % protein remaining (SMARCA4 [2]; HCC-364_SM4, log10[concentration (mol/l)] -8): 73.4926% and 97.1764% and 52.0353%
- % protein remaining (SMARCA4 [2]; HCC-364_SM4, log10[concentration (mol/l)] -9): 95.3509% and 123.202% and 101.968%
- % protein remaining (SMARCA4 [2]; HCC-364_SM4, log10[concentration (mol/l)] -10): 89.9664% and 104.013% and 115.065%
- LogEC50 (SMARCA4 [2]; HCC-364_SM4): -7.78
- DC50 (SMARCA4 [2]; HCC-364_SM4): 16.6 nM
- Bottom (% protein remaining, four-parameter fit) (SMARCA4 [2]; HCT116, SM4): 25.06%
- HillSlope (protein remaining) (SMARCA4 [2]; HCT116, SM4): -2.072
- Top (% protein remaining, four-parameter fit) (SMARCA4 [2]; HCT116, SM4): 134.1%
- % protein remaining (SMARCA4 [2]; HCT116, SM4, conc 9.54e-12 mol/l): 111.196% and 129.494%
- % protein remaining (SMARCA4 [2]; HCT116, SM4, conc 3.81e-11 mol/l): 120.316% and 148.32%
- % protein remaining (SMARCA4 [2]; HCT116, SM4, conc 1.53e-10 mol/l): 129.784% and 140.879%
- % protein remaining (SMARCA4 [2]; HCT116, SM4, conc 6.1e-10 mol/l): 129.281% and 147.637%
- % protein remaining (SMARCA4 [2]; HCT116, SM4, conc 2.44e-9 mol/l): 120.666% and 159.63%
- % protein remaining (SMARCA4 [2]; HCT116, SM4, conc 9.77e-9 mol/l): 125.866% and 131.203%
- % protein remaining (SMARCA4 [2]; HCT116, SM4, conc 3.91e-8 mol/l): 69.9313% and 71.3683%
- % protein remaining (SMARCA4 [2]; HCT116, SM4, conc 1.56e-7 mol/l): 36.8806% and 32.4224%
- % protein remaining (SMARCA4 [2]; HCT116, SM4, conc 6.25e-7 mol/l): 24.622% and 20.2431%
- % protein remaining (SMARCA4 [2]; HCT116, SM4, conc 2.5e-6 mol/l): 26.4349% and 21.0447%
- HillSlope (SMARCA4 [2]; HCT-15_SM4): -0.3445
- % protein remaining (SMARCA4 [2]; HCT-15_SM4, log10[concentration (mol/l)] -6): 18.6748% and 17.1977% and 14.8633%
- % protein remaining (SMARCA4 [2]; HCT-15_SM4, log10[concentration (mol/l)] -7): 73.6571% and 71.0762% and 61.1459%
- % protein remaining (SMARCA4 [2]; HCT-15_SM4, log10[concentration (mol/l)] -8): 98.6414% and 84.1205% and 64.0182%
- % protein remaining (SMARCA4 [2]; HCT-15_SM4, log10[concentration (mol/l)] -9): 109.23% and 94.5032% and 92.8527%
- % protein remaining (SMARCA4 [2]; HCT-15_SM4, log10[concentration (mol/l)] -10): 99.1975% and 103.016%
- Bottom (best-fit value, % protein remaining) (SMARCA4 [2]; LU99_SM4): 6.337%
- HillSlope (SMARCA4 [2]; LU99_SM4): -1.201
- % protein remaining (SMARCA4 [2]; LU99_SM4, log10[concentration (mol/l)] -8): 52.7226% and 80.027% and 88.2243% and 72.2723%
- % protein remaining (SMARCA4 [2]; LU99_SM4, log10[concentration (mol/l)] -9): 95.2248% and 87.3538% and 102.946% and 96.8042%
- % protein remaining (SMARCA4 [2]; LU99_SM4, log10[concentration (mol/l)] -10): 95.6247% and 91.3% and 105.138% and 100.656%
- LogEC50 (SMARCA4 [2]; LU99_SM4): -7.559
- DC50 (SMARCA4 [2]; LU99_SM4): 27.6 nM
- Bottom (best-fit value, % protein remaining) (SMARCA4 [2]; SK-N-AS_SM4): 7.287%
- HillSlope (SMARCA4 [2]; SK-N-AS_SM4): -0.8189
- % protein remaining (SMARCA4 [2]; SK-N-AS_SM4, log10[concentration (mol/l)] -6): 10.7051% and 13.0346%
- % protein remaining (SMARCA4 [2]; SK-N-AS_SM4, log10[concentration (mol/l)] -8): 53.489% and 73.7834%
- % protein remaining (SMARCA4 [2]; SK-N-AS_SM4, log10[concentration (mol/l)] -9): 84.3752% and 77.8596%
- % protein remaining (SMARCA4 [2]; SK-N-AS_SM4, log10[concentration (mol/l)] -10): 91.2323% and 74.8856%
- LogEC50 (SMARCA4 [2]; SK-N-AS_SM4): -7.454
- DC50 (SMARCA4 [2]; SK-N-AS_SM4): 35.2 nM

Source: PMC9551036, “A selective and orally bioavailable VHL-recruiting PROTAC achieves SMARCA2 degradation in vivo” (Nature Communications, 2022)
